Measured values: ChEMBL document CHEMBL1154296, “Potent inhibitors of beta-tryptase and human leukocyte elastase based on the MCoTI-II scaffold” (J Med Chem, 2009)
Starred links: 1 amine or outer side, 2 acyl side, 3 side chain; linkers in the order of their positions; H or OH if unused. Positions of bridges follow the written chain, without caps; N, C: chain ends. Non-standard residues stand in square brackets, D forms with d. Residues, ends and D or L forms follow the SMILES beside them. X2 = N=C(N)NCCC[C@@H](C(=O)[C@H](CCC(N)=O)N[*:1])C(=O)[*:2]; X1 = NCCCC[C@@H](C(=O)[C@H](CCCCN)N[*:1])C(=O)[*:2]; X3 = O=C(NC(=O)[*:2])[C@H](CO)N[*:1]

Key:
[1] = Inhibition of trypsin by substrate hydrolysis based fluorescence assay
[2] = Inhibition of tryptase by substrate hydrolysis based fluorescence assay
Neutrophil elastase = biological target: T1, Neutrophil elastase (Homo sapiens, UniProt P08246); test: Inhibition of human leukocyte elastase by substrate hydrolysis based fluorescence assay
T1 sequence (P08246 whole entry): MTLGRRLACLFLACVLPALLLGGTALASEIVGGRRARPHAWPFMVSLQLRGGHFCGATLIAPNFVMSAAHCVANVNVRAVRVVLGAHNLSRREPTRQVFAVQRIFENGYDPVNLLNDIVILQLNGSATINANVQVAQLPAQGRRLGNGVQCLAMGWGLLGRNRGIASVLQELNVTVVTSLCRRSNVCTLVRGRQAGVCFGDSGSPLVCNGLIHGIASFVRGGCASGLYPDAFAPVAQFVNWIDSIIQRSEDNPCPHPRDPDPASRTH

Row | Ki [1] | Ki [2] | Ki (Neutrophil elastase) | Ki (Neutrophil elastase; read-out: Ki) | Compound
1 | 0.029 nM | 1600 nM | Not Active | – | CC[C@H](C)[C@@H]1NC(=O)[C@@H]2CSSC[C@@H]3NC(=O)[C@H](C(C)C)NC(=O)CNC(=O)CNC(=O)[C@H](CC(=O)O)NC(=O)[C@H](CO)NC(=O)CNC(=O)[C@H](CO)NC(=O)CNC(=O)[C@@H]4CSSC[C@H](NC(=O)[C@H](CC(=O)O)NC(=O)[C@H](CO)NC(=O)[C@H](CC(=O)O)NC(=O)[C@H](CCCNC(=N)N)NC(=O)[C@H](CCCNC(=N)N)NC(=O)[C@H](CSSC[C@H](NC1=O)C(=O)N[C@@H](CCCNC(=N)N)C(=O)NCC(=O)N[C@@H](CC(N)=O)C(=O)NCC(=O)N[C@@H](Cc1ccc(O)cc1)C(=O)N4)NC(=O)[C@@H](CCCNC(=N)N)C(=O)[C@H](CCC(N)=O)NC(=O)[C@H](CC(C)C)NC(=O)[C@H]([C@@H](C)CC)NC(=O)[C@H](CCCCN)NC(=O)[C@@H]1CCCN1C3=O)C(=O)N1CCC[C@H]1C(=O)NCC(=O)N[C@@H](C)C(=O)N2 (cyclo(ACICRGNGYCGSGSDGGVCPKIL[X2]CRRDSDCPG); disulfide 2-19, 4-25, 10-31)
2 | 0.075 nM | 600 nM | Not Active | – | CC[C@H](C)[C@@H]1NC(=O)[C@@H]2CSSC[C@@H]3NC(=O)[C@H](C(C)C)NC(=O)CNC(=O)CNC(=O)[C@H](CC(=O)O)NC(=O)[C@H](CO)NC(=O)CNC(=O)[C@H](CO)NC(=O)CNC(=O)[C@@H]4CSSC[C@H](NC(=O)[C@H](CC(=O)O)NC(=O)[C@H](CO)NC(=O)[C@H](CC(=O)O)NC(=O)[C@H](CCCNC(=N)N)NC(=O)[C@H](CCCNC(=N)N)NC(=O)[C@H](CSSC[C@H](NC1=O)C(=O)N[C@@H](CCCNC(=N)N)C(=O)NCC(=O)N[C@@H](CC(N)=O)C(=O)NCC(=O)N[C@@H](Cc1ccc(O)cc1)C(=O)N4)NC(=O)[C@@H](CCCCN)C(=O)[C@H](CCCCN)NC(=O)[C@H](CC(C)C)NC(=O)[C@H]([C@@H](C)CC)NC(=O)[C@H](CCCCN)NC(=O)[C@@H]1CCCN1C3=O)C(=O)N1CCC[C@H]1C(=O)NCC(=O)N[C@@H](C)C(=O)N2 (cyclo(ACICRGNGYCGSGSDGGVCPKIL[X1]CRRDSDCPG); disulfide 2-19, 4-25, 10-31)
3 | 48 nM | 33 nM | – | – | CC[C@H](C)[C@@H]1NC(=O)[C@H](CCCCN)NC(=O)[C@@H]2CCCN2C(=O)[C@@H]2CSSC[C@@H]3NC(=O)CNC(=O)[C@H](C)NC(=O)[C@H](CC(C)C)NC(=O)[C@@H]4CSSC[C@H](NC(=O)[C@H](Cc5ccc(O)cc5)NC(=O)CNC(=O)[C@H](CC(N)=O)NC(=O)CNC(=O)[C@H](CCCNC(=N)N)NC(=O)[C@H](CSSC[C@H](NC(=O)[C@@H](CCCNC(=N)N)C(=O)[C@H](CCC(N)=O)NC(=O)[C@H](CC(C)C)NC1=O)C(=O)N[C@@H](CCCNC(=N)N)C(=O)N[C@@H](CCCNC(=N)N)C(=O)N[C@@H](CC(=O)O)C(=O)N[C@@H](CO)C(=O)N[C@@H](CC(=O)O)C(=O)N4)NC(=O)[C@H](CC(C)C)NC3=O)C(=O)NCC(=O)N[C@@H](CO)C(=O)NCC(=O)N[C@@H](C(C)C)C(=O)N2 (cyclo(AGCLCRGNGYCGSGVCPKIL[X2]CRRDSDCL); disulfide 3-16, 5-22, 11-28)
4 | – | > 50000 nM | – | 500 nM | CC[C@H](C)[C@@H]1NC(=O)[C@@H]2CSSC[C@@H]3NC(=O)[C@H](C(C)C)NC(=O)CNC(=O)CNC(=O)[C@H](CC(=O)O)NC(=O)[C@H](CO)NC(=O)CNC(=O)[C@H](CO)NC(=O)CNC(=O)[C@@H]4CSSC[C@H](NC(=O)[C@H](CC(=O)O)NC(=O)[C@H](CO)NC(=O)[C@H](CC(=O)O)NC(=O)[C@H](CCCNC(=N)N)NC(=O)[C@H](CCCNC(=N)N)NC(=O)[C@H](CSSC[C@H](NC1=O)C(=O)N[C@@H](CCCNC(=N)N)C(=O)NCC(=O)N[C@@H](CC(N)=O)C(=O)NCC(=O)N[C@@H](Cc1ccc(O)cc1)C(=O)N4)NC(=O)[C@@H](CCCNC(=N)N)C(=O)[C@H](CCC(N)=O)NC(=O)[C@H](CC(C)C)NC(=O)[C@@H]1CCCN1C(=O)[C@@H](C(C)C)NC(=O)[C@H](C)NC3=O)C(=O)N1CCC[C@H]1C(=O)NCC(=O)N[C@@H](C)C(=O)N2
5 | 4.3 nM | 600 nM | – | – | CC[C@H](C)[C@@H]1NC(=O)[C@@H]2CSSC[C@@H]3NC(=O)[C@H](C(C)C)NC(=O)CNC(=O)NC(=O)[C@H](CO)NC(=O)CNC(=O)[C@H](CO)NC(=O)CNC(=O)[C@@H]4CSSC[C@H](NC(=O)[C@H](CC(=O)O)NC(=O)[C@H](CO)NC(=O)[C@H](CC(=O)O)NC(=O)[C@H](CCCNC(=N)N)NC(=O)[C@H](CCCNC(=N)N)NC(=O)[C@H](CSSC[C@H](NC1=O)C(=O)N[C@@H](CCCNC(=N)N)C(=O)NCC(=O)N[C@@H](CC(N)=O)C(=O)NCC(=O)N[C@@H](Cc1ccc(O)cc1)C(=O)N4)NC(=O)[C@@H](CCCNC(=N)N)C(=O)[C@H](CCC(N)=O)NC(=O)[C@H](CC(C)C)NC(=O)[C@H]([C@@H](C)CC)NC(=O)[C@H](CCCCN)NC(=O)[C@@H]1CCCN1C3=O)C(=O)N1CCC[C@H]1C(=O)NCC(=O)N[C@@H](C)C(=O)N2 (cyclo(ACICRGNGYCGSG[X3]GVCPKIL[X2]CRRDSDCPG); disulfide 2-17, 4-23, 10-29)

Continued, molecule first:

Row | Compound | Ki [1] | Ki [2] | Ki (Neutrophil elastase) | Ki (Neutrophil elastase; read-out: Ki)
6 | CC[C@H](C)[C@@H]1NC(=O)[C@@H]2CSSC[C@@H]3NC(=O)[C@H](C(C)C)NC(=O)CNC(=O)CNC(=O)[C@H](CC(=O)O)NC(=O)[C@H](CO)NC(=O)CNC(=O)[C@H](CO)NC(=O)CNC(=O)[C@@H]4CSSC[C@H](NC(=O)[C@H](CC(=O)O)NC(=O)[C@H](CO)NC(=O)[C@H](CC(=O)O)NC(=O)[C@H](CCCNC(=N)N)NC(=O)[C@H](CCCNC(=N)N)NC(=O)[C@H](CSSC[C@H](NC1=O)C(=O)N[C@@H](CCCNC(=N)N)C(=O)NCC(=O)N[C@@H](CC(N)=O)C(=O)NCC(=O)N[C@@H](Cc1ccc(O)cc1)C(=O)N4)NC(=O)[C@@H](CCCNC(=N)N)C(=O)[C@H](CCC(N)=O)NC(=O)[C@H](CC(C)C)NC(=O)[C@@H]1CCCN1C(=O)[C@H](C(C)C)NC(=O)[C@@H]1CCCN1C3=O)C(=O)N1CCC[C@H]1C(=O)NCC(=O)N[C@@H](C)C(=O)N2 (cyclo(ACICRGNGYCGSGSDGGVCPVPL[X2]CRRDSDCPG); disulfide 2-19, 4-25, 10-31) | – | > 50000 nM | – | 520 nM
7 | CC[C@H](C)[C@@H]1NC(=O)[C@@H]2CSSC[C@@H]3NC(=O)[C@H](C(C)C)NC(=O)CNC(=O)CNC(=O)[C@H](CC(=O)O)NC(=O)[C@H](CO)NC(=O)CNC(=O)[C@H](CO)NC(=O)CNC(=O)[C@@H]4CSSC[C@H](NC(=O)[C@H](CC(=O)O)NC(=O)[C@H](CO)NC(=O)[C@H](CC(=O)O)NC(=O)[C@H](CCCNC(=N)N)NC(=O)[C@H](CCCNC(=N)N)NC(=O)[C@H](CSSC[C@H](NC1=O)C(=O)N[C@@H](CCCNC(=N)N)C(=O)NCC(=O)N[C@@H](CC(N)=O)C(=O)NCC(=O)N[C@@H](Cc1ccc(O)cc1)C(=O)N4)NC(=O)[C@@H](CCCNC(=N)N)C(=O)[C@H](CCC(N)=O)NC(=O)[C@H](CC(C)C)NC(=O)[C@H]([C@@H](C)CC)NC(=O)[C@H](CCCNC(=N)N)NC(=O)[C@@H]1CCCN1C3=O)C(=O)N1CCC[C@H]1C(=O)NCC(=O)N[C@@H](C)C(=O)N2 (cyclo(ACICRGNGYCGSGSDGGVCPRIL[X2]CRRDSDCPG); disulfide 2-19, 4-25, 10-31) | 0.085 nM | 100 nM | Not Active | –
8 | CC[C@H](C)[C@@H]1NC(=O)[C@H](CCCNC(=N)N)NC(=O)[C@@H]2CCCN2C(=O)[C@@H]2CSSC[C@@H]3NC(=O)CNC(=O)[C@H](C)NC(=O)[C@H](CC(C)C)NC(=O)[C@@H]4CSSC[C@H](NC(=O)[C@H](Cc5ccc(O)cc5)NC(=O)CNC(=O)[C@H](CC(N)=O)NC(=O)CNC(=O)[C@H](CCCNC(=N)N)NC(=O)[C@H](CSSC[C@H](NC(=O)[C@@H](CCCNC(=N)N)C(=O)[C@H](CCC(N)=O)NC(=O)[C@H](CC(C)C)NC1=O)C(=O)N[C@@H](CCCNC(=N)N)C(=O)N[C@@H](CCCNC(=N)N)C(=O)N[C@@H](CC(=O)O)C(=O)N[C@@H](CO)C(=O)N[C@@H](CC(=O)O)C(=O)N4)NC(=O)[C@H](CC(C)C)NC3=O)C(=O)NCC(=O)N[C@@H](CO)C(=O)NCC(=O)N[C@@H](C(C)C)C(=O)N2 (cyclo(AGCLCRGNGYCGSGVCPRIL[X2]CRRDSDCL); disulfide 3-16, 5-22, 11-28) | 8.8 nM | 28 nM | – | –
9 | CC[C@H](C)[C@@H]1NC(=O)[C@H](CCCCN)NC(=O)[C@@H]2CCCN2C(=O)[C@@H](NC(=O)[C@@H](N)C(C)C)CSSC[C@@H]2NC(=O)CNC(=O)[C@H](C)NC(=O)[C@H](CC(C)C)NC(=O)[C@@H]3CSSC[C@@H](C(=O)NCC(=O)N[C@@H](CO)C(=O)NCC(=O)O)NC(=O)[C@H](Cc4ccc(O)cc4)NC(=O)CNC(=O)[C@H](CC(N)=O)NC(=O)CNC(=O)[C@H](CCCNC(=N)N)NC(=O)[C@H](CSSC[C@H](NC(=O)[C@@H](CCCNC(=N)N)C(=O)[C@H](CCC(N)=O)NC(=O)[C@H](CC(C)C)NC1=O)C(=O)N[C@@H](CCCNC(=N)N)C(=O)N[C@@H](CCCNC(=N)N)C(=O)N[C@@H](CC(=O)O)C(=O)N[C@@H](CO)C(=O)N[C@@H](CC(=O)O)C(=O)N3)NC(=O)[C@H](CC(C)C)NC2=O (H-VCPKIL[X2]CRRDSDCLAGCLCRGNGYCGSG-OH; disulfide 2-18, 8-20, 14-26) | 99 nM | 110 nM | – | –
